{
  "source": "patent US11124537B2",
  "about": "“Inhibitors of glucocorticoid receptor” (ORIC Pharmaceuticals, Inc., priority 2015, dated 2021)",
  "note": "pIC50: −log10 of the molar value.",
  "data": [
    {"system": "AR", "test": "In Vitro AR Agonism Assay", "assay_type": "cell-based", "settings": "LNAR reporter cell line, 10% CSS, 18-24 hrs; ratio of maximum response to that of Mifepristone (set to 1)", "protocol": "(§1) Example 5: In Vitro AR Agonism Assay\n(§2) The AR agonism assay was done in the LNAR reporter cell line which has overexpressed AR and 4XARE-Luc genes. This cell line is sensitive to even minor partial AR agonism activity in hormone-deprived media (CSS). The assays were done in RPMI (without phenol red)+10% CSS using 6000 LNAR cells/well in 384-well plates and compounds were incubated with cells in […] incubator for 18-24 hrs. OneGlo reagent (25 uL/well) was added and plates were read with luminometer within 3 minutes.\n(§3) To gauge the AR partial agonism activity, Mifepristone is included as a standard in the assay. AR agonism assay results are quantified by determining the ratio of the maximum response of individual compounds to the maximum response of Mifepristone (arbitrarily set to 1). Values of Table 4 are reported as Relative Maximum Response to Mifepristone. This general trend of AR agonism was shown for the class of compounds described herein.", "values": [
      {"smiles": "COC1CN(c2ccc([C@H]3C[C@@]4(C)[C@@H](CC[C@@]4(O)C#CC(C)(C)C)[C@@H]4CCC5=CC(=O)CCC5=C43)cc2)C1", "note": "[drawing 381]", "Relative Maximum Response to Mifepristone": "A (A: ≤0.4)"},
      {"smiles": "CC(C)(C)C#C[C@]1(O)CC[C@H]2[C@@H]3CCC4=CC(=O)CCC4=C3[C@@H](c3ccc(N4CCCC4)cc3)C[C@@]21C", "note": "[drawing 368]", "Relative Maximum Response to Mifepristone": "A (A: ≤0.4)"},
      {"smiles": "CN(C)c1ccc([C@H]2C[C@@]3(C)[C@@H](CC[C@@]3(O)C#Cc3ccc(S(C)(=O)=O)cc3)[C@@H]3CCC4=CC(=O)CCC4=C32)cc1", "note": "[drawing 383]", "Relative Maximum Response to Mifepristone": "B (B: >0.4)"},
      {"smiles": "CN(C)c1ccc([C@H]2C[C@@]3(C)[C@@H](CC[C@@]3(O)C#CC(C)(C)C)[C@@H]3CCC4=CC(=O)CCC4=C32)cc1F", "note": "[drawing 370]", "Relative Maximum Response to Mifepristone": "A (A: ≤0.4)"},
      {"smiles": "Cc1cc([C@H]2C[C@@]3(C)[C@@H](CC[C@@]3(O)C#CC(C)(C)C)[C@@H]3CCC4=CC(=O)CCC4=C32)ccc1N(C)C", "note": "[drawing 371]", "Relative Maximum Response to Mifepristone": "A (A: ≤0.4)"},
      {"smiles": "CN(C)c1cc(F)c([C@H]2C[C@@]3(C)[C@@H](CC[C@@]3(O)C#CC(C)(C)C)[C@@H]3CCC4=CC(=O)CCC4=C32)cc1F", "note": "[drawing 376]", "Relative Maximum Response to Mifepristone": "A (A: ≤0.4)"},
      {"smiles": "CC(C)C#C[C@]1(O)CC[C@H]2[C@@H]3CCC4=CC(=O)CCC4=C3[C@@H](c3cc(F)c(C(C)C)c(F)c3)C[C@@]21C", "note": "[drawing 374]", "Relative Maximum Response to Mifepristone": "A (A: ≤0.4)"},
      {"smiles": "CC(C)(C)C#C[C@]1(O)CC[C@H]2[C@@H]3CCC4=CC(=O)CCC4=C3[C@@H](c3ccc4c(c3)OCO4)C[C@@]21C", "note": "[drawing 378]", "Relative Maximum Response to Mifepristone": "A (A: ≤0.4)"},
      {"smiles": "CN(C)c1ccc([C@H]2C[C@@]3(C)[C@@H](CC[C@@]3(O)C#Cc3ccccc3)[C@@H]3CCC4=CC(=O)CCC4=C32)cc1", "note": "[drawing 366]", "Relative Maximum Response to Mifepristone": "A (A: ≤0.4)"},
      {"smiles": "CC(C)(C)C#C[C@]1(O)CC[C@H]2[C@@H]3CCC4=CC(=O)CCC4=C3[C@@H](c3ccc(N4CCC[C@@H]4CO)cc3)C[C@@]21C", "note": "[drawing 385]", "Relative Maximum Response to Mifepristone": "A (A: ≤0.4)"},
      {"smiles": "CN(C)c1ccc([C@H]2C[C@@]3(C)[C@@H](CC[C@@]3(O)C#CC3(C)COC3)[C@@H]3CCC4=CC(=O)CCC4=C32)cc1", "note": "[drawing 384]", "Relative Maximum Response to Mifepristone": "A (A: ≤0.4)"},
      {"smiles": "Cc1c(F)cc([C@H]2C[C@@]3(C)[C@@H](CC[C@@]3(O)C#Cc3ccc(S(C)(=O)=O)cc3)[C@@H]3CCC4=CC(=O)CCC4=C32)cc1F", "note": "[drawing 372]", "Relative Maximum Response to Mifepristone": "A (A: ≤0.4)"},
      {"smiles": "CC(C)(C)C#C[C@]1(O)CC[C@H]2[C@@H]3CCC4=CC(=O)CCC4=C3[C@@H](c3cccc(C4CC4)c3)C[C@@]21C", "note": "[drawing 369]", "Relative Maximum Response to Mifepristone": "A (A: ≤0.4)"},
      {"smiles": "CC(C)(C)C#C[C@]1(O)CC[C@H]2[C@@H]3CCC4=CC(=O)CCC4=C3[C@@H](c3ccc(N4CCN(S(C)(=O)=O)CC4)cc3)C[C@@]21C", "note": "[drawing 382]", "Relative Maximum Response to Mifepristone": "B (B: >0.4)"},
      {"smiles": "CC(C)C#C[C@]1(O)CC[C@H]2[C@@H]3CCC4=CC(=O)CCC4=C3[C@@H](c3c(F)cc(N4CCOCC4)cc3F)C[C@@]21C", "note": "[drawing 373]", "Relative Maximum Response to Mifepristone": "A (A: ≤0.4)"},
      {"smiles": "CC(C)(C)C#C[C@]1(O)CC[C@H]2[C@@H]3CCC4=CC(=O)CCC4=C3[C@@H](c3ccc(C(C)(C)C)cc3)C[C@@]21C", "note": "[drawing 367]", "Relative Maximum Response to Mifepristone": "A (A: ≤0.4)"},
      {"smiles": "CN(C)c1ccc([C@H]2C[C@@]3(C)[C@@H](CC[C@@]3(O)C#CC3CC3)[C@@H]3CCC4=CC(=O)CCC4=C32)c(F)c1F", "note": "[drawing 375]", "Relative Maximum Response to Mifepristone": "A (A: ≤0.4)"},
      {"smiles": "C[C@@H]1C[C@H]2[C@@H]3CCC4=CC(=O)CCC4=C3[C@@H](c3ccc(N(C)C)cc3)C[C@]2(C)[C@]1(O)C#CC(C)(C)C", "note": "[drawing 379]", "Relative Maximum Response to Mifepristone": "A (A: ≤0.4)"},
      {"smiles": "CCC#C[C@]1(O)CC[C@H]2[C@@H]3CCC4=CC(=O)CCC4=C3[C@@H](c3ccc4c(c3)OCCO4)C[C@@]21C", "note": "[drawing 377]", "Relative Maximum Response to Mifepristone": "A (A: ≤0.4)"},
      {"smiles": "COC(C)(C)C#C[C@]1(O)CC[C@H]2[C@@H]3CCC4=CC(=O)CCC4=C3[C@@H](c3ccc(N4CCCC4)cc3)C[C@@]21C", "note": "[drawing 380]", "Relative Maximum Response to Mifepristone": "A (A: ≤0.4)"}
    ]},
    {"system": "AR", "test": "In Vitro AR Agonism Assay", "assay_type": "cell-based", "settings": "LNAR reporter cell line; in concentrations as low as 10 nM", "protocol": "as §1, §2, §3", "values": [
      {"smiles": "CC#C[C@]1(O)CC[C@H]2[C@@H]3CCC4=CC(=O)CCC4=C3[C@@H](c3ccc(N(C)C)cc3)C[C@@]21C", "note": "[Mifepristone, reference compound]", "partial AR agonism": "strong partial AR agonism"}
    ]},
    {"target": "GR (Homo sapiens (Human), UniProt P04150)", "sequence (P04150 whole entry)": "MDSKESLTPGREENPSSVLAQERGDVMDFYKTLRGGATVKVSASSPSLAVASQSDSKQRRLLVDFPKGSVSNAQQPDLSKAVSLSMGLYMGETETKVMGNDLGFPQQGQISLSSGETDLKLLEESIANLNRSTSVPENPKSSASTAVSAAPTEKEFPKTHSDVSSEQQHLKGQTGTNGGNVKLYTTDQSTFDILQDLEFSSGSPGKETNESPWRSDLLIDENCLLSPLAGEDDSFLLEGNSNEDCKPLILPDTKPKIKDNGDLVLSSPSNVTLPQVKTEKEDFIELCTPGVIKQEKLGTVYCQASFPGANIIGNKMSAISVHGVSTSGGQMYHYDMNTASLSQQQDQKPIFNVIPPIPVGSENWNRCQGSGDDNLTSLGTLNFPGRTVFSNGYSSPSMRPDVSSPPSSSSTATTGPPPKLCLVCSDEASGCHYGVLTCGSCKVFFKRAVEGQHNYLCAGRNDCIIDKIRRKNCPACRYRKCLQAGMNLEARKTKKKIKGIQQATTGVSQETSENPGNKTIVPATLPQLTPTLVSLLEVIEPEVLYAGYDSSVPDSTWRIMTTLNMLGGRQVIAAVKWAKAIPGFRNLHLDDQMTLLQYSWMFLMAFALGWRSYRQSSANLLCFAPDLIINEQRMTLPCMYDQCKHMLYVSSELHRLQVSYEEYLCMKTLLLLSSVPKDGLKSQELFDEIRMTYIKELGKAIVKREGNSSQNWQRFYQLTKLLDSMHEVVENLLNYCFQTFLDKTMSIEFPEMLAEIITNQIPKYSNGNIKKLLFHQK", "test": "In Vitro GR Luciferase Reporter Assay", "assay_type": "cell-based", "settings": "CHO-K1-GR-MMTV-Luc reporter cells, antagonist assay, 10 nM Dexamethasone, 18-24 hours", "source_text": "Example 4: In Vitro GR Luciferase Reporter Assay\nCell Line: CHO-K1-GR-MMTV-Luc reporter cells\nCulture Media: DMEM (with phenol red)+10% FBS\nAssay Media: DMEM (without phenol red)+10% CSS\nCulture CHO-K1-GR-MMTV-Luc reporter cells in 15 cm plates in Culture Media at conditions less than 90% confluence.\nPrepare 200×DMSO 1:5 serial dilutions of control and test compounds in 96-well non-sterile V bottom plate in DMSO, 8 serial dilutions for each compound.\nPrepare 5× Assay Media diluted compound serial dilutions in 96-well non-sterile V bottom plate: Add 97.5 uL/well of Assay Media into 96-well then add 2.5 ul of 200× concentration of compounds and mix well.\nSeed cells for Antagonist Assay: […] CHO-K1-GR-MMTV-Luc reporter cells were seeded in a Corning 3707 flat clear bottom 384-well white TC plate in 20 ul of Assay Media containing 12.5 nM Dexamethasone (final concentration=10 nM).\nAdd compounds: 5 ul of assay media diluted compounds were added to appropriate wells and followed a quick spin (1000 rpm, 10 sec) to bring media and cells to the bottom of plate. The plates were covered with SealMate film to avoid evaporation and placed in 37° C. incubator for approximately 18-24 hours.\nRead plates: Equilibrate appropriate amount of Promega OneGlo luciferase reagent to room temperature. Remove the plates from incubator and add 25 uL of OneGlo reagent/well by multiple channel pipette and read the plates with Tecan F500 luminometer within 3 minutes.\nThe ability of the compounds disclosed herein to inhibit GR activity was quantified and the respective IC50 value was determined. Table 3 provides the cellular IC50 values of various substituted steroidal compounds disclosed herein.", "values": [
      {"smiles": "CN(C)c1ccc([C@H]2C[C@@]3(C)[C@@H](CC[C@@]3(O)C#Cc3ccccc3)[C@@H]3CCC4=CC(=O)CCC4=C32)cc1", "note": "[drawing 266]", "pIC50": "≥ 7.00"},
      {"smiles": "CC(C)(C)C#C[C@]1(O)CC[C@H]2[C@@H]3CCC4=CC(=O)CCC4=C3[C@@H](c3ccc(N4CCCC4)cc3)C[C@@]21C", "note": "[drawing 276]", "pIC50": "≥ 7.00"},
      {"smiles": "C[C@H]1CCCN1c1ccc([C@H]2C[C@@]3(C)[C@@H](CC[C@@]3(O)C#CC(C)(C)C)[C@@H]3CCC4=CC(=O)CCC4=C32)cc1", "pIC50": "≥ 7.00"},
      {"smiles": "CC(C)c1ccc([C@H]2C[C@@]3(C)[C@@H](C[C@@H](C)[C@@]3(O)C#CC(C)(C)C)[C@@H]3CCC4=CC(=O)CCC4=C32)cc1", "pIC50": "< 7.00"}
    ]}
  ]
}
